Where “and” joins values, the source holds several entries; their conditions need not be identical. Equal entries are not always repeated.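 48-hour exposure; five concentrations; linearly interpolated endpoints. GI50 = concentration required for 50% inhibition of growth. TGI is the concentration that stops growth completely.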
Columns and labels:
Assay in all cases: NCI-60 cell line screen, 48 h
[1] = tested on: COLO 205 colon
[2] = tested on: HCT-116 colon
[3] = tested on: MALME-3M melanoma
[4] = tested on: MDA-MB-231 breast
[5] = tested on: MDA-MB-435
[6] = tested on: NCI-H23 lung
[7] = tested on: OVCAR-3 ovarian
[8] = tested on: OVCAR-5 ovarian

Compound | GI50 [1] [µM] | TGI [1] [µM] | GI50 [2] | TGI [2] | GI50 [3] [µM] | TGI [3] [µM] | GI50 [4] [µM] | TGI [4] | GI50 [5] [µM] | TGI [5] [µM] | GI50 [6] | TGI [6] | GI50 [7] [µM] | TGI [7] [µM] | GI50 [8] [µM] | TGI [8] [µM]
C[n+]1ccc(-c2c3nc(c(-c4ccc5c(ccc[n+]5C)c4)c4ccc([nH]4)c(-c4cc[n+](C)cc4)c4nc(c(-c5ccc6c(ccc[n+]6C)c5)c5ccc2[nH]5)C=C4)C=C3)cc1 | 23.1 | > 50 | > 50 µM | > 50 µM | > 50 | > 50 | 16.3 | > 50 µM | 12.9 | 36.9 | > 50 µM | > 50 µM | 7.91 | 40.5 | > 50 | > 50
CC(=O)OCC1OC(n2c(-c3ccccc3)c(C)c(C)c(C#N)c2=S)C(OC(C)=O)C(OC(C)=O)C1OC(C)=O (stereo unspecified) |  | > 100 | 11.4 µM and 40.1 µM | 21.6 µM and > 100 µM |  | > 100 |  | > 50 µM and 30.9 µM |  | > 100 | 32.9 µM and 16.3 µM | > 50 µM and 54.7 µM |  | > 100 |  | > 100
CC([O-])C(=O)[O-].NCC1CCC1CN.[Pt+4] (stereo unspecified) | > 10 | > 10 | > 10 µM | > 10 µM | > 10 | > 10 | > 10 | > 10 µM | > 10 | > 10 | > 10 µM | > 10 µM | > 10 | > 10 | > 10 | > 10
CCCCCCCCCC(CCCC(O)CC(=O)O)OC1OC(COC2OC(C)C(O)C(O)C2O)C(O)C(O)C1OC1OC(CO)C(O)C(O)C1OC1OC(C)C(O)C(O)C1O (stereo unspecified) | > 40 | > 40 | > 40 µM | > 40 µM | > 40 | > 40 | > 40 | > 40 µM | > 40 | > 40 | > 40 µM | > 40 µM | > 40 | > 40 | > 40 | > 40
C=C(CN1CCN(c2cccc(F)c2)CC1)c1ccc(C(=O)Nc2ccccc2N)cc1 | 2.93 | 9.09 | 1.08 µM | 12.5 µM | 1.83 | 68 | 1.01 | 4.27 µM | 0.283 | 1.74 | 1.77 µM | 17.3 µM | 1.94 | 17.7 | 2.61 | > 100
COc1ccc(Cn2c(Br)c3c(c2-c2cc(OC)c(OC)c(OC)c2)CCc2sc(NC(C)=O)nc2-3)cc1 | 2.53 | 5.78 | 3.4 µM | 14.6 µM | 12.7 | 83.4 | 3.22 | 43.6 µM | 0.613 | 4.36 | 8.6 µM | > 100 µM | 3.63 | > 100 | 4.39 | > 100
O=C1c2cccnc2C(=O)c2c1c(C(=O)OCCN1CCOCC1)c1ccccn21 | 0.137 | 0.69 | 0.0417 µM | 1.49 µM | 0.0353 | 0.985 | 0.905 | 41.2 µM | 0.0387 | 0.65 | < 0.01 µM |  | 0.0671 | 1.11 | 0.276 | 1.65
CCN1CCN(C(=O)[C@]23CCC(C)(C)C[C@@H]2C2=CC[C@@H]4[C@@]5(C)C/C(=C/c6cccnc6)C(=O)C(C)(C)[C@@H]5CC[C@@]4(C)[C@]2(C)CC3)CC1 | 1.89 | 4.74 | 1.01 µM | 2.22 µM | 1.53 | 2.91 | 1.4 | 2.84 µM | 1.48 | 3.11 | 2.1 µM | 5.85 µM | 1.51 | 2.95 | 1.56 | 3.35
COc1ccc(CNc2nc(NCc3ccc(OC)cc3)c3n[nH]c(C(C)C)c3n2)cc1 |  |  | 4.06 µM | 22.6 µM | 7.5 | > 100 | 4.67 | 21.8 µM | 3.17 | 11.1 | 4.09 µM | 18.3 µM | 3.04 | 14.5 | 8.65 | 56.6
C/C(=N\NC(=O)c1ccncc1)c1ccc(O)cc1O | 3.8 | > 100 | 3.16 µM | > 100 µM |  |  | 3.88 | > 100 µM | 5.03 | > 100 | 11.4 µM | > 100 µM | 4.59 | > 100 | 27 | > 100
CC(C)Oc1ccc(C(=O)N[C@H](CNC(=O)CN(C)C)Cc2ccc(-c3cn4cccc([C@H](C)O)c4n3)cc2)cc1Cl | 0.0396 | 13.2 | 0.0355 µM | 14.2 µM | 0.078 | 16.3 | 0.0445 | 8.2 µM | 0.0293 | 12.8 | 0.0566 µM | 21.5 µM | 0.0393 | 15.7 | 0.0771 | 22.2
O=[N+]([O-])c1ccc(-c2cn(-c3ccc(Cl)cc3)cn2)cc1 |  | > 100 |  | > 100 µM |  | > 100 |  | > 100 µM |  | > 100 |  | > 100 µM |  | 35.3 |  | > 100
Cc1ccc(NC(=O)c2nc(S(C)=O)oc2-c2ccc(F)cc2)cc1Nc1nccc(-c2cccnc2)n1 (stereo unspecified) | 2.03 | 4.41 | 1.88 µM | 3.57 µM | 1.34 | 2.89 | 1.94 | 4.38 µM | 2.13 | 4.77 | 1.83 µM | 4.49 µM | 1.87 | 3.39 | 4.46 | 30.1
C[C@@]1(N2C(=O)OC[C@@H]2c2ccccc2)C(=O)N([C@H](CC(=O)N2CCC(N3CCCCC3)CC2)C(=O)NCc2cccc(C(F)(F)F)c2)[C@@H]1/C=C/c1ccccc1 | 1.8 | 3.58 | 1.93 µM | 3.51 µM | 1.83 | 3.54 | 2.07 | 4.03 µM | 1.74 | 3.26 | 4.12 µM | 16.7 µM | 1.85 | 3.91 | 2.78 | 9.4
CSc1nc2c(c(=O)[nH]1)C(c1ccc(Cl)cc1)C1=C(N2)/C(=C/c2ccc(Cl)cc2)CNC1 (stereo unspecified) | 1.91 | 3.53 | 1.72 µM | 3.55 µM | 4.41 | 19.2 | 1.75 | 4.48 µM | 1.79 | 3.69 | 2.48 µM | 5.84 µM | 2.23 | 5.19 | 2.53 | 6.25

— PubChem BioAssay (NCI)
